Experimental data published in patent publication US20240043427A1 (Gilead Sciences, Inc., priority 2020, published 2024).

molecular target: CD73 (Homo sapiens (Human), UniProt P21589); format: biochemical; settings: 1 mM NaH2PO4 in enzyme buffer, CD73 0.3 nM, AMP 15 uM
Sequence (P21589 27-574): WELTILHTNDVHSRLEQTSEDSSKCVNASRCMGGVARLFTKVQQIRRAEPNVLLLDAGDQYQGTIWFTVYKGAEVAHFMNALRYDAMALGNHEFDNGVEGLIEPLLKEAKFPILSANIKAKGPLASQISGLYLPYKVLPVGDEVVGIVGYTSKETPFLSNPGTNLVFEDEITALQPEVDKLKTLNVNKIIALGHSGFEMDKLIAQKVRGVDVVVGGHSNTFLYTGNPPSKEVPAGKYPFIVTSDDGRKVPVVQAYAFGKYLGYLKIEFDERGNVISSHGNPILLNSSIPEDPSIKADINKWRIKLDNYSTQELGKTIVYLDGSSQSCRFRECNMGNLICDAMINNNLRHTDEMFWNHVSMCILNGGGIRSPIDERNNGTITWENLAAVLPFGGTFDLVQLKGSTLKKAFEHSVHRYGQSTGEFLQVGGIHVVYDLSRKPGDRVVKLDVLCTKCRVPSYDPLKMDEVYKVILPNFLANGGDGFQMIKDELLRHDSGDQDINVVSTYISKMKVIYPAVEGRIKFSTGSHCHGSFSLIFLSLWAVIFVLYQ

Compound | IC50 [nM]
O=c1[nH]cc(-c2cc([C@H]3C[C@@H]3c3ccc4ncsc4c3)c3nccn3n2)c(=O)[nH]1 (racemic) [Example 276, 5-(8-((1S,2S)-2-(benzo[d]thiazol-6-yl)cyclopropyl)imidazo[1,2-b]pyridazin-6-yl)pyrimidine-2,4(1H,3H)-dione] | 0.91
O=c1[nH]cc(-c2cc([C@H]3C[C@@H]3c3ccc4c(c3)OC(F)(F)O4)c3ncc(F)n3n2)c(=O)[nH]1 (racemic) [Example 278, 5-(8-((1S,2S)-2-(2,2-difluorobenzo[d][1,3]dioxol-5-yl)cyclopropyl)-3-fluoroimidazo[1,2-b]pyridazin-6-yl)pyrimidine-2,4(1H,3H)-dione] | 3.69
O=c1[nH]cc(-c2cc([C@H]3C[C@@H]3c3ccc(OC(F)(F)F)cc3F)c3nccn3n2)c(=O)[nH]1 (racemic) [Example 280, 5-(8-((1S,2S)-2-(2-fluoro-4-(trifluoromethoxy)phenyl)cyclopropyl)imidazo[1,2-b]pyridazin-6-yl)pyrimidine-2,4(1H,3H)-dione] | 5.97
COC(=O)c1ccc([C@H]2C[C@@H]2c2cc(-c3c[nH]c(=O)[nH]c3=O)nn3ccnc23)cc1 (racemic) [Example 281, methyl 4-((1S,2S)-2-(6-(2,4-dioxo-1,2,3,4-tetrahydropyrimidin-5-yl)imidazo[1,2-b]pyridazin-8-yl)cyclopropyl)benzoate] | 1.54
COC(=O)c1cccc([C@H]2C[C@@H]2c2cc(-c3c[nH]c(=O)[nH]c3=O)nn3ccnc23)c1 (racemic) [Example 282, methyl 3-((1S,2S)-2-(6-(2,4-dioxo-1,2,3,4-tetrahydropyrimidin-5-yl)imidazo[1,2-b]pyridazin-8-yl)cyclopropyl)benzoate] | 1.81
NC(=O)c1cccc([C@H]2C[C@@H]2c2cc(-c3c[nH]c(=O)[nH]c3=O)nn3ccnc23)c1 (racemic) [Example 284, 3-((1S,2S)-2-(6-(2,4-dioxo-1,2,3,4-tetrahydropyrimidin-5-yl)imidazo[1,2-b]pyridazin-8-yl)cyclopropyl)benzamide] | 1.07
CNC(=O)c1ccc([C@H]2C[C@@H]2c2cc(-c3c[nH]c(=O)[nH]c3=O)nn3ccnc23)cc1 (racemic) [Example 285, 4-((1S,2S)-2-(6-(2,4-dioxo-1,2,3,4-tetrahydropyrimidin-5-yl)imidazo[1,2-b]pyridazin-8-yl)cyclopropyl)-N-methylbenzamide] | 1.42
CNC(=O)c1cccc([C@H]2C[C@@H]2c2cc(-c3c[nH]c(=O)[nH]c3=O)nn3ccnc23)c1 (racemic) [Example 286, 3-((1S,2S)-2-(6-(2,4-dioxo-1,2,3,4-tetrahydropyrimidin-5-yl)imidazo[1,2-b]pyridazin-8-yl)cyclopropyl)-N-methylbenzamide] | 1.19
CN(C)C(=O)c1cccc([C@H]2C[C@@H]2c2cc(-c3c[nH]c(=O)[nH]c3=O)nn3ccnc23)c1 (racemic) [Example 287, 3-((1S,2S)-2-(6-(2,4-dioxo-1,2,3,4-tetrahydropyrimidin-5-yl)imidazo[1,2-b]pyridazin-8-yl)cyclopropyl)-N,N-dimethylbenzamide] | 3.9
CN(C)C(=O)c1ccc([C@H]2C[C@@H]2c2cc(-c3c[nH]c(=O)[nH]c3=O)nn3ccnc23)cc1 (racemic) [Example 288, 4-((1S,2S)-2-(6-(2,4-dioxo-1,2,3,4-tetrahydropyrimidin-5-yl)imidazo[1,2-b]pyridazin-8-yl)cyclopropyl)-N,N-dimethylbenzamide] | 6.86
O=C(c1ccc([C@H]2C[C@@H]2c2cc(-c3c[nH]c(=O)[nH]c3=O)nn3ccnc23)cc1)N1CCC1 (racemic) [Example 289, 5-(8-((1S,2S)-2-(4-(azetidine-1-carbonyl)phenyl)cyclopropyl)imidazo[1,2-b]pyridazin-6-yl)pyrimidine-2,4(1H,3H)-dione] | 2.27
CC1CN(C(=O)c2ccc([C@H]3C[C@@H]3c3cc(-c4c[nH]c(=O)[nH]c4=O)nn4ccnc34)cc2)C1 (racemic) [Example 290, 5-(8-((1S,2S)-2-(4-(3-methylazetidine-1-carbonyl)phenyl)cyclopropyl)imidazo[1,2-b]pyridazin-6-yl)pyrimidine-2,4(1H,3H)-dione] | 3.46
O=C(c1ccc([C@H]2C[C@@H]2c2cc(-c3c[nH]c(=O)[nH]c3=O)nn3ccnc23)cc1)N1CC(C(F)(F)F)C1 (racemic) [Example 291, 5-(8-((1S,2S)-2-(4-(3-(trifluoromethyl)azetidine-1-carbonyl)phenyl)cyclopropyl)imidazo[1,2-b]pyridazin-6-yl)pyrimidine-2,4(1H,3H)-dione] | 3.25
O=C(c1ccc([C@H]2C[C@@H]2c2cc(-c3c[nH]c(=O)[nH]c3=O)nn3ccnc23)cc1)N1CC(F)(F)C1 (racemic) [Example 292, 5-(8-((1S,2S)-2-(4-(3,3-difluoroazetidine-1-carbonyl)phenyl)cyclopropyl)imidazo[1,2-b]pyridazin-6-yl)pyrimidine-2,4(1H,3H)-dione] | 2.08
CC1(C)CN(C(=O)c2ccc([C@H]3C[C@@H]3c3cc(-c4c[nH]c(=O)[nH]c4=O)nn4ccnc34)cc2)C1 (racemic) [Example 293, 5-(8-((1S,2S)-2-(4-(3,3-dimethylazetidine-1-carbonyl)phenyl)cyclopropyl)imidazo[1,2-b]pyridazin-6-yl)pyrimidine-2,4(1H,3H)-dione] | 4.75
O=C(c1cccc([C@H]2C[C@@H]2c2cc(-c3c[nH]c(=O)[nH]c3=O)nn3ccnc23)c1)N1CCC1 (racemic) [Example 294, 5-(8-((1S,2S)-2-(3-(azetidine-1-carbonyl)phenyl)cyclopropyl)imidazo[1,2-b]pyridazin-6-yl)pyrimidine-2,4(1H,3H)-dione] | 1.02
CC1CN(C(=O)c2cccc([C@H]3C[C@@H]3c3cc(-c4c[nH]c(=O)[nH]c4=O)nn4ccnc34)c2)C1 (racemic) [Example 295, 5-(8-((1S,2S)-2-(3-(3-methylazetidine-1-carbonyl)phenyl)cyclopropyl)imidazo[1,2-b]pyridazin-6-yl)pyrimidine-2,4(1H,3H)-dione] | 1.92
O=C(c1cccc([C@H]2C[C@@H]2c2cc(-c3c[nH]c(=O)[nH]c3=O)nn3ccnc23)c1)N1CC(C(F)(F)F)C1 (racemic) [Example 296, 5-(8-((1S,2S)-2-(3-(3-(trifluoromethyl)azetidine-1-carbonyl)phenyl)cyclopropyl)imidazo[1,2-b]pyridazin-6-yl)pyrimidine-2,4(1H,3H)-dione] | 2.14

More lines, now with the values ahead:

IC50 [nM] | Compound
1.51 | O=C(c1cccc([C@H]2C[C@@H]2c2cc(-c3c[nH]c(=O)[nH]c3=O)nn3ccnc23)c1)N1CC(F)(F)C1 (racemic) [Example 297, 5-(8-((1S,2S)-2-(3-(3,3-difluoroazetidine-1-carbonyl)phenyl)cyclopropyl)imidazo[1,2-b]pyridazin-6-yl)pyrimidine-2,4(1H,3H)-dione]
3.78 | CC1(C)CN(C(=O)c2cccc([C@H]3C[C@@H]3c3cc(-c4c[nH]c(=O)[nH]c4=O)nn4ccnc34)c2)C1 (racemic) [Example 298, 5-(8-((1S,2S)-2-(3-(3,3-dimethylazetidine-1-carbonyl)phenyl)cyclopropyl)imidazo[1,2-b]pyridazin-6-yl)pyrimidine-2,4(1H,3H)-dione]
7.85 | O=C(c1ccc([C@H]2C[C@@H]2c2cc(-c3c[nH]c(=O)[nH]c3=O)nn3ccnc23)cc1)N1C[C@@H](F)[C@H](F)C1 (racemic) [Example 299, 5-(8-((1S,2S)-2-(4-((3R,4R)-3,4-difluoropyrrolidine-1-carbonyl)phenyl)cyclopropyl)imidazo[1,2-b]pyridazin-6-yl)pyrimidine-2,4(1H,3H)-dione]
1.8 | O=C(c1cccc([C@H]2C[C@@H]2c2cc(-c3c[nH]c(=O)[nH]c3=O)nn3ccnc23)c1)N1C[C@@H](F)[C@H](F)C1 (racemic) [Example 300, 5-(8-((1S,2S)-2-(3-((3R,4R)-3,4-difluoropyrrolidine-1-carbonyl)phenyl)cyclopropyl)imidazo[1,2-b]pyridazin-6-yl)pyrimidine-2,4(1H,3H)-dione]
4.45 | O=C(c1ccc([C@H]2C[C@@H]2c2cc(-c3c[nH]c(=O)[nH]c3=O)nn3ccnc23)cc1)N1C[C@@H](F)[C@@H](F)C1 (racemic) [Example 301, 5-(8-((1S,2S)-2-(4-((3S,4R)-3,4-difluoropyrrolidine-1-carbonyl)phenyl)cyclopropyl)imidazo[1,2-b]pyridazin-6-yl)pyrimidine-2,4(1H,3H)-dione]
3.08 | O=C(c1cccc([C@H]2C[C@@H]2c2cc(-c3c[nH]c(=O)[nH]c3=O)nn3ccnc23)c1)N1C[C@@H](F)[C@@H](F)C1 (racemic) [Example 302, 5-(8-((1S,2S)-2-(3-((3S,4R)-3,4-difluoropyrrolidine-1-carbonyl)phenyl)cyclopropyl)imidazo[1,2-b]pyridazin-6-yl)pyrimidine-2,4(1H,3H)-dione]
7.74 | O=C(c1ccc([C@H]2C[C@@H]2c2cc(-c3c[nH]c(=O)[nH]c3=O)nn3ccnc23)cc1)N1CC(F)(F)C(F)(F)C1 (racemic) [Example 303, 5-(8-((1S,2S)-2-(4-(3,3,4,4-tetrafluoropyrrolidine-1-carbonyl)phenyl)cyclopropyl)imidazo[1,2-b]pyridazin-6-yl)pyrimidine-2,4(1H,3H)-dione]
3.59 | O=C(c1cccc([C@H]2C[C@@H]2c2cc(-c3c[nH]c(=O)[nH]c3=O)nn3ccnc23)c1)N1CC(F)(F)C(F)(F)C1 (racemic) [Example 304, 5-(8-((1S,2S)-2-(3-(3,3,4,4-tetrafluoropyrrolidine-1-carbonyl)phenyl)cyclopropyl)imidazo[1,2-b]pyridazin-6-yl)pyrimidine-2,4(1H,3H)-dione]
4.81 | O=C(c1ccc([C@H]2C[C@@H]2c2cc(-c3c[nH]c(=O)[nH]c3=O)nn3ccnc23)cc1)N1CCC(F)(F)C1 (racemic) [Example 305, 5-(8-((1S,2S)-2-(4-(3,3-difluoropyrrolidine-1-carbonyl)phenyl)cyclopropyl)imidazo[1,2-b]pyridazin-6-yl)pyrimidine-2,4(1H,3H)-dione]
